Data published in PubChem BioAssay (NCI).
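Five compound concentrations were applied to cells in 96-well plates for 48 hours; endpoints were derived by simple linear interpolation of the resulting dose-response curve. GI50: concentration for 50% inhibition of growth. TGI: concentration producing complete growth inhibition.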

What was measured:
Test in all cases: DTP human tumour cell line panel, 48 h
NCI-H522 lung = system: NCI-H522 lung
HCC-2998 colon = system: HCC-2998 colon
LOX IMVI melanoma = system: LOX IMVI melanoma
UACC-257 melanoma = system: UACC-257 melanoma
NCI-H23 lung = system: NCI-H23 lung
SW-620 colon = system: SW-620 colon
TK-10 renal = system: TK-10 renal
SK-OV-3 ovarian = system: SK-OV-3 ovarian
SK-MEL-5 melanoma = system: SK-MEL-5 melanoma
T-47D breast = system: T-47D breast
MDA-MB-231 breast = system: MDA-MB-231 breast
SF-295 CNS = system: SF-295 CNS
NCI/ADR-RES ovarian = system: NCI/ADR-RES ovarian
OVCAR-5 ovarian = system: OVCAR-5 ovarian
HOP-62 NSCLC = system: HOP-62 NSCLC
SK-MEL-28 melanoma = system: SK-MEL-28 melanoma
KM12 colon = system: KM12 colon
OVCAR-4 ovarian = system: OVCAR-4 ovarian
NCI-H226 lung = system: NCI-H226 lung
UACC-62 melanoma = system: UACC-62 melanoma
DU-145 prostate = system: DU-145 prostate
EKVX NSCLC = system: EKVX NSCLC
SNB-75 CNS = system: SNB-75 CNS
A549 NSCLC = system: A549 NSCLC
CCRF-CEM leukemia = system: CCRF-CEM leukemia
786-0 renal = system: 786-0 renal
HCT-15 colon = system: HCT-15 colon
BT-549 breast = system: BT-549 breast
RXF 393 renal = system: RXF 393 renal
OVCAR-3 ovarian = system: OVCAR-3 ovarian
SNB-19 CNS = system: SNB-19 CNS
SF-268 CNS = system: SF-268 CNS
HOP-92 NSCLC = system: HOP-92 NSCLC
M14 melanoma = system: M14 melanoma
COLO 205 colon = system: COLO 205 colon
MDA-MB-435 = system: MDA-MB-435
A498 renal = system: A498 renal
IGROV1 ovarian = system: IGROV1 ovarian
NCI-H460 lung = system: NCI-H460 lung
CAKI-1 renal = system: CAKI-1 renal
PC-3 prostate = system: PC-3 prostate
HT29 colon = system: HT29 colon
SN12C renal = system: SN12C renal
UO-31 renal = system: UO-31 renal
ACHN renal = system: ACHN renal
U251 CNS = system: U251 CNS
MCF7 breast = system: MCF7 breast
HL-60(TB) leukemia = system: HL-60(TB) leukemia
RPMI-8226 leukemia = system: RPMI-8226 leukemia
OVCAR-8 ovarian = system: OVCAR-8 ovarian
SR leukemia = system: SR leukemia
SF-539 CNS = system: SF-539 CNS
HCT-116 colon = system: HCT-116 colon
K-562 leukemia = system: K-562 leukemia
MALME-3M melanoma = system: MALME-3M melanoma
HS 578T breast = system: HS 578T breast
MOLT-4 leukemia = system: MOLT-4 leukemia
SK-MEL-2 melanoma = system: SK-MEL-2 melanoma

Cc1nn(-c2ccccc2)c2ncnc(N/N=C/c3ccccc3O)c12
GI50 (NCI-H522 lung): 416 nM
TGI (NCI-H522 lung): 44900 nM
GI50 (HCC-2998 colon): 793 nM
TGI (HCC-2998 colon): 35200 nM
GI50 (LOX IMVI melanoma): 317 nM
TGI (LOX IMVI melanoma): 5730 nM
GI50 (UACC-257 melanoma): 1810 nM
TGI (UACC-257 melanoma): 31100 nM
GI50 (NCI-H23 lung): 509 nM
TGI (NCI-H23 lung): 25500 nM
GI50 (SW-620 colon): 537 nM
TGI (SW-620 colon): > 96000 nM
GI50 (TK-10 renal): 2970 nM
TGI (TK-10 renal): > 70600 nM
GI50 (SK-OV-3 ovarian): 465 nM
TGI (SK-OV-3 ovarian): 4720 nM
GI50 (SK-MEL-5 melanoma): 621 nM
TGI (SK-MEL-5 melanoma): 4720 nM
GI50 (T-47D breast): 1920 nM
TGI (T-47D breast): 13700 nM
GI50 (MDA-MB-231 breast): 529 nM
TGI (MDA-MB-231 breast): 53300 nM
GI50 (SF-295 CNS): 407 nM
TGI (SF-295 CNS): 11700 nM
GI50 (NCI/ADR-RES ovarian): 331 nM
TGI (NCI/ADR-RES ovarian): 8540 nM
GI50 (OVCAR-5 ovarian): 3850 nM
TGI (OVCAR-5 ovarian): > 100000 nM
GI50 (HOP-62 NSCLC): 288 nM
TGI (HOP-62 NSCLC): 6230 nM
GI50 (SK-MEL-28 melanoma): 481 nM
TGI (SK-MEL-28 melanoma): > 100000 nM
GI50 (KM12 colon): 382 nM
TGI (KM12 colon): > 100000 nM
GI50 (OVCAR-4 ovarian): 303 nM
TGI (OVCAR-4 ovarian): > 54300 nM
GI50 (NCI-H226 lung): 2550 nM
TGI (NCI-H226 lung): 8590 nM
GI50 (UACC-62 melanoma): 2010 nM
TGI (UACC-62 melanoma): 12100 nM
GI50 (DU-145 prostate): 318 nM
TGI (DU-145 prostate): > 100000 nM
GI50 (EKVX NSCLC): 391 nM
TGI (EKVX NSCLC): > 43300 nM
GI50 (SNB-75 CNS): 267 nM
TGI (SNB-75 CNS): 2990 nM
GI50 (A549 NSCLC): 936 nM
TGI (A549 NSCLC): > 41900 nM
GI50 (CCRF-CEM leukemia): 140 nM
TGI (CCRF-CEM leukemia): > 100000 nM
GI50 (786-0 renal): 396 nM
TGI (786-0 renal): 27700 nM
GI50 (HCT-15 colon): 266 nM
TGI (HCT-15 colon): 17500 nM
GI50 (BT-549 breast): 996 nM
TGI (BT-549 breast): 41900 nM
GI50 (RXF 393 renal): 882 nM
TGI (RXF 393 renal): 9110 nM
GI50 (OVCAR-3 ovarian): 306 nM
TGI (OVCAR-3 ovarian): 46300 nM
GI50 (SNB-19 CNS): 507 nM
TGI (SNB-19 CNS): > 100000 nM
GI50 (SF-268 CNS): 300 nM
TGI (SF-268 CNS): > 100000 nM
GI50 (HOP-92 NSCLC): 455 nM
TGI (HOP-92 NSCLC): 6750 nM
GI50 (M14 melanoma): 270 nM
TGI (M14 melanoma): 1640 nM
GI50 (COLO 205 colon): 385 nM
TGI (COLO 205 colon): 22900 nM
GI50 (MDA-MB-435): 544 nM
TGI (MDA-MB-435): > 100000 nM
GI50 (A498 renal): 2820 nM
TGI (A498 renal): 11200 nM
GI50 (IGROV1 ovarian): 597 nM
TGI (IGROV1 ovarian): 16500 nM
GI50 (NCI-H460 lung): 382 nM
TGI (NCI-H460 lung): > 78400 nM
GI50 (CAKI-1 renal): 943 nM
TGI (CAKI-1 renal): 8860 nM
GI50 (PC-3 prostate): 345 nM
TGI (PC-3 prostate): > 49700 nM
GI50 (HT29 colon): 1120 nM
TGI (HT29 colon): > 50000 nM
GI50 (SN12C renal): 520 nM
TGI (SN12C renal): > 49600 nM
GI50 (UO-31 renal): 325 nM
TGI (UO-31 renal): 2850 nM
GI50 (ACHN renal): 283 nM
TGI (ACHN renal): 40400 nM
GI50 (U251 CNS): 425 nM
TGI (U251 CNS): > 49500 nM
GI50 (MCF7 breast): 353 nM
TGI (MCF7 breast): 12500 nM
GI50 (HL-60(TB) leukemia): 370 nM
TGI (HL-60(TB) leukemia): > 100000 nM
GI50 (RPMI-8226 leukemia): 394 nM
TGI (RPMI-8226 leukemia): 33200 nM
GI50 (OVCAR-8 ovarian): 354 nM
TGI (OVCAR-8 ovarian): > 100000 nM
GI50 (SR leukemia): 232 nM
TGI (SR leukemia): > 100000 nM
GI50 (SF-539 CNS): 396 nM
TGI (SF-539 CNS): 7130 nM
GI50 (HCT-116 colon): 422 nM
TGI (HCT-116 colon): 27300 nM
GI50 (K-562 leukemia): 397 nM
TGI (K-562 leukemia): > 100000 nM
GI50 (MALME-3M melanoma): 505 nM
TGI (MALME-3M melanoma): 11800 nM
GI50 (HS 578T breast): 1830 nM
TGI (HS 578T breast): > 100000 nM
GI50 (MOLT-4 leukemia): 280 nM
TGI (MOLT-4 leukemia): > 59000 nM
GI50 (SK-MEL-2 melanoma): 633 nM
TGI (SK-MEL-2 melanoma): 47100 nM
